Like-named read-outs stand apart in the source and are kept apart here.
Columns and labels:
[1] = biological target: T1, SFRP-1 (Homo sapiens, UniProt Q8N474); assay: Cell-based assay for in vitro measurement of SFRP-1/SARP2 antagonist activity (U2OS cells co-transfected with 16x TCF-tk-Luciferase reporter, Wnt and hSFRP-1); conditions: for fold induction at 15 µM / fold induction at 10 µM: U2OS; for fold induction at 10 µM: read-out: Fold Induction with SFRP-1, U2OS cells, single dose 10 μM, luciferase reporter, fold induction over SFRP-1 control;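 on all read-outs here: U2OS cells co-transfected with a TCF-tk luciferase reporter, a Wnt vector, hSFRP-1 or empty vector and CMV-βgal, luciferase luminescence read in cell lysates alongside βgal activity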
T1 sequence (Q8N474 32-314): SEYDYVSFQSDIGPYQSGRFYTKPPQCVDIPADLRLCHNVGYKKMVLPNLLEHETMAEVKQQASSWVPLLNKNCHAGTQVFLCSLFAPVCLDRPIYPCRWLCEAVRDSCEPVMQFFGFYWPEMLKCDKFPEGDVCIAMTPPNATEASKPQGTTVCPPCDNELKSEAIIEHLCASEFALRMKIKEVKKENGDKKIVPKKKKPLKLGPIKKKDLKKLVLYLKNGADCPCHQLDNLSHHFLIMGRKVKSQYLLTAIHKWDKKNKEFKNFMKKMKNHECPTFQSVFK

[2] = biological target: T1, SFRP-1; assay: Fluorescence polarization binding assay (competitive displacement of a probe compound from SFRP-1); conditions: fluorescence anisotropy, 45 nM SFRP-1, 20 nM probe;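 further: test compound competes with a fluorescent probe held by SFRP-1, seen as a drop in probe anisotropy after incubation in darkness, with anisotropy as function of rising compound dose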
[3] = read-out: Fold Induction with SFRP-1, Conc 15 μM, with SFRP-1, fold induction over SFRP-1 control, single dose
[4] = read-out: Fold Induction without SFRP-1, Conc 15 μM, without SFRP-1, single dose
[5] = read-out: Fold Induction with SFRP-1, Conc 15 μM, single dose, luciferase reporter, fold induction over SFRP-1 control, cells with SFRP-1
[6] = read-out: Fold Induction without SFRP-1, Conc 15 μM, single dose, luciferase reporter, cells without SFRP-1 (specificity control)

With Cc1ccc(S(=O)(=O)c2ccc(N3CCOCC3)cc2)cc1S(=O)(=O)NCCCn1ccnc1 [Example 313, N-[3-(1H-imidazol-1-yl)propyl]-2-methyl-5-[(4-morpholin-4-ylphenyl)sulfonyl]benzenesulfonamide] the fold induction at 15 µM [1, 3] was 1.9, the fold induction at 15 µM [1, 4] was 1 and the IC50 [2] was 500 nM.

In the case of Cc1ccc(S(=O)(=O)c2ccccc2)cc1S(=O)(=O)NC1CCN(C(=O)c2ccc(N(C)C)cc2)CC1 [Example 499, N-{1-[4-(dimethylamino)benzoyl]piperidin-4-yl}-2-methyl-5-(phenylsulfonyl)benzenesulfonamide], the fold induction at 15 µM [1, 5] is reported as 2.4, the fold induction at 15 µM [1, 6] is reported as 1 and the IC50 [2] is reported as 900 nM.

Molecule COc1ccccc1C(=O)N1CCC(NS(=O)(=O)c2cc(S(=O)(=O)c3ccccc3)ccc2C)CC1 [Example 462, N-[1-(2-methoxybenzoyl)piperidin-4-yl]-2-methyl-5-(phenylsulfonyl)benzenesulfonamide] has a fold induction at 15 µM [1, 3] of 2.9, a fold induction at 15 µM [1, 4] of 1 and an IC50 [2] of 2000 nM.

For C[S+]([O-])c1ccc(C(=O)N2CCC(NS(=O)(=O)c3cc(S(=O)(=O)c4ccccc4)ccc3C(F)(F)F)CC2)cc1 (stereo not drawn) [Example 1052, N-{1-[4-(Methylsulfinyl)benzoyl]piperidin-4-yl}-5-(phenylsulfonyl)-2-(trifluoromethyl)benzenesulfonamide], the EC50 [1] was 155 nM and the IC50 [2] was 90 nM.

O=C(O)CCC(=O)N1CCCC1CCNS(=O)(=O)c1cc(S(=O)(=O)c2ccccc2)ccc1C(F)(F)F (stereo not drawn) [Example 919, 4-oxo-4-{2-[2-({[5-(phenylsulfonyl)-2-(trifluoromethyl)phenyl]sulfonyl}amino)ethyl]pyrrolidin-1-yl}butanoic acid] showed an EC50 [1] of 5260 nM, a fold induction at 10 µM [1] of 1.6 and an IC50 [2] of 1400 nM.

With CC(C)c1ccc(S(=O)(=O)c2ccccc2)cc1S(=O)(=O)NC1CC(C)(C)NC(C)(C)C1 [Example 935, 2-isopropyl-5-(phenylsulfonyl)-N-(2,2,6,6-tetramethylpiperidin-4-yl)benzenesulfonamide] the EC50 [1] was 2530 nM, the fold induction at 10 µM [1] was 2.5 and the IC50 [2] was 7000 nM.

In the case of N#CCCNS(=O)(=O)c1cc(S(=O)(=O)c2ccc(O)cc2)ccc1C(F)(F)F [Example 821, N-(2-cyanoethyl)-5-[(4-hydroxyphenyl)sulfonyl]-2-(trifluoromethyl)benzenesulfonamide], the EC50 [1] is reported as 626 nM, the fold induction at 10 µM [1] is reported as 5.1 and the IC50 [2] is reported as 300 nM.

Molecule CCc1ccc(S(=O)(=O)c2ccccc2)cc1S(=O)(=O)NCCN1CCOCC1 [Example 226, 2-ethyl-N-(2-morpholin-4-ylethyl)-5-(phenylsulfonyl)benzenesulfonamide] has a fold induction at 15 µM [1, 3] of 3, a fold induction at 15 µM [1, 4] of 0.7 and an IC50 [2] of 2600 nM.

For COC(=O)CN1CCC(NS(=O)(=O)c2cc(S(=O)(=O)c3ccccc3)ccc2C(F)(F)F)CC1 [Example 1063, methyl [4-({[5-(phenylsulfonyl)-2-(trifluoromethyl)phenyl]sulfonyl)amino)piperidin-1-yl]acetate], the EC50 [1] was 455 nM and the IC50 [2] was 140 nM.

O=S(=O)(NCCc1nn[nH]n1)c1cc(S(=O)(=O)c2ccccc2)ccc1C(F)(F)F [Example 863, 5-(phenylsulfonyl)-N-[2-(2H-tetrazol-5-yl)ethyl]-2-(trifluoromethyl)benzenesulfonamide] was tested, and the fold induction at 10 µM [1] was 2.4 and the IC50 [2] was 1800 nM.

With COc1ccccc1S(=O)(=O)c1ccc(C(C)C)c(S(=O)(=O)NCCc2ccccn2)c1 [Example 457, 2-isopropyl-5-[(2-methoxyphenyl)sulfonyl]-N-(2-pyridin-2-ylethyl)benzenesulfonamide] the fold induction at 15 µM [1, 3] was 2.9, the fold induction at 15 µM [1, 4] was 1 and the IC50 [2] was 1100 nM.

Molecule CC(C)c1ccc(S(=O)(=O)c2ccc(F)cc2)cc1S(=O)(=O)NC1CCOCC1 [Example 321, 5-[(4-fluorophenyl)sulfonyl]-2-isopropyl-N-tetrahydro-2H-pyran-4-ylbenzenesulfonamide] has a fold induction at 15 µM [1, 3] of 3.3, a fold induction at 15 µM [1, 4] of 1.2 and an IC50 [2] of 1000 nM.

In the case of O=C(O)C1CCC(NS(=O)(=O)c2cc(S(=O)(=O)c3ccccc3)ccc2C(F)(F)F)CC1 (stereo not drawn) [Example 968, 4-({[5-(phenylsulfonyl)-2-(trifluoromethyl)phenyl]sulfonyl}amino)cyclohexanecarboxylic acid], the fold induction at 10 µM [1] is reported as 2.4 and the IC50 [2] is reported as 1400 nM.

Molecule O=S(=O)(NC1CCNCC1)c1cc(S(=O)(=O)c2ccccc2NCCO)ccc1C(F)(F)F [Example 869, 5-({2-[(2-hydroxyethyl)amino]phenyl}sulfonyl)-N-piperidin-4-yl-2-(trifluoromethyl)benzenesulfonamide] has an EC50 [1] of 1760 nM, a fold induction at 10 µM [1] of 3.5 and an IC50 [2] of 1200 nM.

In the case of O=C(O)c1cccc(N2CCC(CNS(=O)(=O)c3cc(S(=O)(=O)c4ccccc4)ccc3C(F)(F)F)CC2)c1 [Example 956, 3-{4-[({[5-(phenylsulfonyl)-2-(trifluoromethyl)phenyl]sulfonyl}amino)methyl]piperidin-1-yl}benzoic acid], the EC50 [1] is reported as 310 nM, the fold induction at 10 µM [1] is reported as 4.3 and the IC50 [2] is reported as 110 nM.

Work on N#CN1CCC(NS(=O)(=O)c2cc(S(=O)(=O)c3ccccc3)ccc2Cl)CC1 [Example 651, 2-chloro-N-(1-cyanopiperidin-4-yl)-5-(phenylsulfonyl)benzenesulfonamide] yielded a fold induction at 15 µM [1, 5] of 2.9, a fold induction at 15 µM [1, 6] of 0.9 and an IC50 [2] of 400 nM.

COC(=O)COc1ccc2c(c1)CC(NS(=O)(=O)c1cc(S(=O)(=O)c3ccccc3)ccc1C(F)(F)F)C2 (stereo not drawn) [Example 1028, methyl{[2-({[5-(phenylsulfonyl)-2-(trifluoromethyl)phenyl]sulfonyl}amino)-2,3-dihydro-1H-inden-5-yl]oxy}acetate] was tested, and the EC50 [1] was 87 nM and the IC50 [2] was 60 nM.

CN(C)C(=O)CN1CCC(NS(=O)(=O)c2cc(S(=O)(=O)c3ccccc3)ccc2C(F)(F)F)CC1 [Example 1085, N,N-dimethyl-2-[4-({[5-(phenylsulfonyl)-2-(trifluoromethyl)phenyl]sulfonyl}amino)piperidin-1-yl]acetamide] was tested, and the EC50 [1] was 746 nM and the IC50 [2] was 150 nM.

CNc1ccccc1S(=O)(=O)c1ccc(C(F)(F)F)c(S(=O)(=O)NC2CCNCC2)c1 [Example 861, 5-{[2-(methylamino)phenyl]sulfonyl}-N-piperidin-4-yl-2-(trifluoromethyl)benzenesulfonamide] was tested, and the EC50 [1] was 1780 nM, the fold induction at 10 µM [1] was 4 and the IC50 [2] was 600 nM.

With Cc1ccc(S(=O)(=O)c2ccccc2)cc1S(=O)(=O)NC1CCN(C(=O)c2cccc(C(F)(F)F)c2)CC1 [Example 465, 2-methyl-5-(phenylsulfonyl)-N-{1-[3-(trifluoromethyl)benzoyl]piperidin-4-yl}benzenesulfonamide] the fold induction at 15 µM [1, 3] was 1.9, the fold induction at 15 µM [1, 4] was 1.1 and the IC50 [2] was 4000 nM.

In the case of CCCc1ccc(S(=O)(=O)c2ccc(F)cc2)cc1S(=O)(=O)NCC1CCOCC1 [Example 561, 5-[(4-Fluorophenyl)sulfonyl]-2-propyl-N-(tetrahydro-2H-pyran-4-ylmethyl)benzenesulfonamide], the fold induction at 15 µM [1, 5] is reported as 2.3, the fold induction at 15 µM [1, 6] is reported as 0.9 and the IC50 [2] is reported as 1400 nM.

Molecule CCc1ccc(S(=O)(=O)c2ccc(C)c(S(=O)(=O)NCCc3ccccn3)c2)cc1 [Example 418, 5-[(4-ethylphenyl)sulfonyl]-2-methyl-N-(2-pyridin-2-ylethyl)benzenesulfonamide] has a fold induction at 15 µM [1, 3] of 2.3, a fold induction at 15 µM [1, 4] of 1.2 and an IC50 [2] of 1300 nM.

— patent US20060276464A1, “Diarylsulfone sulfonamides and use thereof” (Wyeth, priority 2005, published 2006)
